The IC50 is the concentration at which inhibition is half-maximal. By EC50 is commonly meant the concentration at which the effect is half-maximal.

Structures are written as SMILES. Where “and” joins values, the source holds several entries; their conditions need not be identical. Equal entries are not always repeated.

The subject of data set [1] is HCT-116 (colon). Kind of data set: Cancer cell proliferation assay (acid phosphatase). It is filed as cell-based. Conditions: Homo sapiens, HCT-116, 72 h, Table 6A; 72 hrs; read-out: HCT-116 IC50. The protocol:
(§1) Measurement of the inhibitive effect of compounds on cancer cell proliferation was performed. Various cell lines were tested, including HCT-116 (colon); A549 (lung); TOV-21G (ovarian); Calu-6 (lung); and LS-174T (colon); and cell lines H1703 (Lung) and SKOV3 (ovarian); JEKO-1 (lymophoma); TOV-112D (ovarian) are tested. The assays were performed under the following conditions: Cells are harvested at a concentration of 4×10^4 cells/ml in media. Volumes of 100 μl/well of these cell suspensions were added to a 96 well plate using a multichannel pipette. Plates were gently agitated to ensure an even dispersion of cells over a given plate. Cells were then incubated at 37° C., 5% CO2 overnight. Following this, 100 μl of compound at varying concentrations was added to wells in triplicate. Control wells are those with 100 μl media containing 0.33% DMSO added to cell suspension (this is the equivalent volume of DMSO found in the highest concentration of drug). Plates were then gently agitated, as above, and incubated at 37° C., 5% CO2 for 72 hrs (control wells have reached 80-90% confluency). Assessment of cell proliferation in the presence of the compound was determined by the acid phosphatase assay.
(§2) Following the incubation period of 72 hrs, media was removed from the plates. Each well on the plate was washed twice with 100 μl PBS. This was then removed and 100 μl of freshly prepared phosphatase substrate (10 mM p-nitrophenol phosphate in 0.1M sodium acetate, 0.1% triton X-100, pH 5.5) was added to each well. The plates were then incubated in the dark at 37° C. for 2 hours. Colour development was monitored during this time. The enzymatic reaction was stopped by the addition of 50 μl of 1N NaOH. The plate was read in a dual beam plate reader at 405 nm with a reference wavelength of 620 nm. The absorbance reading of the latter is subtracted from the former, and the effect of the drug on cell proliferation was then measured as a percentage against the control cells (DMSO), which is taken as 0% inhibition.

Data set [2] deals with T1, Parkin ligase (Homo sapiens, UniProt O60260).
T1 sequence (O60260 1-465): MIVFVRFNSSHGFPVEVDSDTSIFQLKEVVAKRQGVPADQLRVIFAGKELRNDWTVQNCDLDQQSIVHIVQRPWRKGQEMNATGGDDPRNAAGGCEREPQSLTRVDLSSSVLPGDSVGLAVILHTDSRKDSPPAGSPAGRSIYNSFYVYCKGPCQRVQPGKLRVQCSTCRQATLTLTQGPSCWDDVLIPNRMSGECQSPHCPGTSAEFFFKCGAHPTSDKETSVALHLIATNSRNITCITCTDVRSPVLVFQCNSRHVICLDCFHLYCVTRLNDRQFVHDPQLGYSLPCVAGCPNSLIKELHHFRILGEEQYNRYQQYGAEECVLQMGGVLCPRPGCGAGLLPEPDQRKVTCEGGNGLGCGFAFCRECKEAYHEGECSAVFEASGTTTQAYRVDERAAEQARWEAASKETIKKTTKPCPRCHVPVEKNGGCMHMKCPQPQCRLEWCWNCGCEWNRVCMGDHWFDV
Kind of data set: Activity-Based Probe Assay using Ubiquitin vinyl sulfone probe (TR-FRET). The class given is biochemical. As to conditions: heat activated Parkin, HA-Ub-VS probe, activation EC50; read-out: Probe Assay EC50 (μM) [Example 2]. Here is the method: An Ubiquitin vinyl sulfone probe can be used that irreversibly binds to the active site cysteine of Parkin ligase. Covalent attachment of the probe to the Parkin can be monitored by TR-FRET. Candidate activator compounds can be identified by increasing the activity of Parkin ligase due to an increase in TR-FRET signal. Screening for activating compounds can be distinguished from the controls as follows: 100% activation signal=Heat activated Parkin+100 nM control activator in DMSO. 0% activation signal=Heat activated Parkin+DMSO only. Parkin activators can be identified by an increase of the 0% activation signal TR-FRET signal. Assay Conditions: Materials: • Assay Plate: White 384 well plate (Corning 3572) • Enzyme: Parkin-His tagged 203 μM (10.5 mg/ml) • Probe: Ubiquitin vinyl-sulfone (HA-Ub-VS Boston Biochem U-212) • DMSO: DMSO (Sigma cat #D4540-100ML) • Reaction Buffer: 50 mM HEPES (pH 8.5), 150 mM NaCl, 0.01% Tween 20, 0.1% BSA • Detection Buffer: 50 mM HEPES (pH 8.5), 150 mM NaCl, 0.01% Tween 20, 0.1% BSA, 800 mM KF • Detection Reagent A: 2.6 nM Anti-6HIS-Eu cryptate and 40 nM Anti-HA-XL665 in detection buffer • Eu cryptate: Anti-6HIS-Eu cryptate (CisBio 61HISKLA) • XL665: Anti-HA-XL665 (CisBio 610HAXLA) Enzyme Reaction (15 Min Pre Incubation Parkin with Activator Only) • Parkin: 40 nM • HA-Ub-VS Probe: 70 nM • Activator/DMSO: 2× Activator/2% DMSO Reaction time: 60 minutes Temperature: 22° C. Total volume: 10 μl reaction Detection Reaction Take […] of Enzyme Reaction above and add 10 μl detection Reagent A under the following conditions: • Reaction time: 60 minutes • Temperature: 22° C. • Total volume: 20 μl
Assay procedure (Using HP D-300 compound dispenser and Bravo for the operation):
1) Heat activate Parkin in reaction buffer (500 μl/1.5 ml tube: Eppendorf Thermomixer 5 minutes, 400 rpm at 58° C. and put on ice until needed).
2) Load assay plate wells with 4.8 μl 84.5 nM Parkin in reaction buffer by use of Bravo.
3) Deliver 0.2 μl 200× activator candidates in DMSO by use of HP D-300 compound dispenser. Highest 200× concentration=[…] and then twofold dilutions.
4) Spin 1000 rpm, 2 minutes, at room temp.
5) Incubate plate for 15 minutes at room temp.
6) Add 5 μl 140 nM HA-Ub-VS Probe in reaction buffer by use of Bravo.
7) Spin 1000 rpm, 2 minutes, at room temp.
8) Incubate plate for 60 minutes at room temp.
9) Add 10 μl 2.6 nM Anti-6HIS-Eu cryptate and 40 nM […] in detection buffer.
10) Spin 1000 rpm, 2 minutes, at room temp.
11) Incubate plate for 60 minutes at room temp.
12) Read plates on Perkin Elmer Envision instrument with the following parameters:
LANCE dual laser protocol loaded into the Envision® software
Top Mirror: LANCE/DELFIA Duel/Bias (Bar code 446)
Emission Filter: APC 665 EM (Bar code 205)
2nd Emission Filter: Europium 615 EM (Bar code 203)
Read 655 nm (channel 1) and 615 nm (channel 2) wavelengths on Envision®
Data Analysis: The Data can be read in CSV files. There are two tables in those CSV files, which are the values of 655 nm (channel 1) and 615 nm (channel 2) wavelengths respectively. The data is converted to an HTRF Ratio=(Channel 1/Channel 2)*10,000
The average of all the 0 μM controls (DMSO only)=BKGD (Background—0% activation). Subtract BKGD from each HTRF Ratio value=HTRF−BKGD. The average of all the […] 100 nM control activator in DMSO controls=Max (100% activation). The following equation is then used to calculate % Activation for each well/candidate as follows: % Activation=(HTRF−BKGD/Max)*100.
Graphpad Prism was used with Transform X values: X=Log(X) and nonlinear regression (dose-response-stimulation): Log(agonist) vs Response−variable slope (four parameters) with constrains set to Bottom=0 and Top=100.
The Activity-Based Probe Assay was performed with various compounds in Tables 1, 2, 3A and 3B.
(Time-resolved FRET reads energy transfer from a long-lived donor to a nearby acceptor.)

Data set [3] is described as follows: Microsomal stability assay, rat liver microsomes. Conditions: pH 7.4; rat liver microsomes 1.0 mg/mL, 1 μM compound, NADPH; read-out: RLM t1/2. It is filed as in vitro ADME. The protocol: Compounds were also tested for metabolic stability in both rat liver microsomes (RLM) and the compounds are tested for human liver microsomes (HLM) and their half-life is calculated (See Tables 5A and 5B). The assay was performed as follows. The total volume for each incubation was 250 μL. A 100 μM DMSO solution of compound (diluted from 10 mM stock solution) was spiked into 50 mM KH2PO4 (pH 7.4) buffer containing liver microsome at a concentration of 1.0 mg/mL. The reaction was initiated by the addition of 50 μL of 1 mM NADPH. The final concentration of each compound was 1 μM (1% DMSO). The positive controls, phenacetin for CYP1A2, diclofenac for CYP2C9, omeprazole for CYP2C19, dextromethorphan for CYP2D6 and midazolam for CYP3A4 were added to a separate tube with the final substrate concentrations of 1 μM (1% DMSO) for evaluating the enzyme activities in the liver microsomes. At 0, 15, 30 and 60 min, an aliquot of 15 μL reaction mixtures were removed and 200 μL of methanol (with internal standard of 25 ng/mL propranolol) was added to quench the reaction. The resulting mixture was centrifuged and supernatant was used for LC-MS/MS analysis.
The signals for each compound, or the metabolites for the probe substrates and the internal standard were integrated and the peak area ratios to internal standard were generated. Percent parent remaining at a specified timepoint was calculated based on the peak area ratios at time 0 (as 100%) for in vitro metabolic stability studies in liver microsome and hepatocyte. The observed rate constant (kobs) for the metabolism of substrates was calculated by plotting the natural log of percentage substrate remaining versus time of incubation with the slope being kobs. The half-life (T1/2) was calculated according to the following equation: T1/2=[…]
(Liver microsomes are a subcellular fraction often used to study metabolism.)

Data set [4] concerns TOV-21G (ovarian). Briefly: Cancer cell proliferation assay (acid phosphatase). The class given is cell-based. As to conditions: Homo sapiens, TOV21G, 72 h, Table 6A; 72 hrs; read-out: TOV-21G IC50. The protocol: as §1, §2
Data set [5] concerns A549 (lung). Briefly: Cancer cell proliferation assay (acid phosphatase). It is filed as cell-based. As to conditions: Homo sapiens, A549, 72 h, Table 6A; 72 hrs; read-out: A549 IC50. The protocol: as §1, §2

In the case of `Cc1ccccc1C(=O)Nc1nc(NC(C)(C)c2ccccc2)nn1-c1ccccc1` [Compound 152], in data set [1], the IC50 was over 2.5 µM.
Regarding `Cc1ccccc1C(=O)Nc1nc(NC(=O)C2CCN2)nn1-c1ccccc1` (stereo not drawn) [Compound 5], the concentration for a half-maximal effect (EC50) in data set [2] is 3 µM. Further, the half-life at 1 μM in data set [3] was found to be 2.18 h.
On to `Cc1ccccc1C(=O)Nc1nc(-c2cccc(F)n2)nn1-c1ccccc1` [Compound 123], for which the 50% effective concentration (EC50) in data set [2] was determined as 7 µM. For the same molecule, in data set [3], the half-life at 1 μM amounted to 1.4 h.
For `C#Cc1cccc(C(=O)Nc2nc(NC(=O)c3cccc(N=[N+]=[N-])c3)n(-c3ccccc3)n2)c1` [Compound 11], in that order: 2 µM and 2.45 h.
For `Cc1ccccc1C(=O)Nc1nc(-c2ccccc2O)nn1-c1ccc(OC(F)(F)F)cc1` [Compound 137], in that order: 4 µM and 1.22 h.
Consider `Cc1ccccc1C(=O)Nc1nc(NC(=O)c2ccc(F)cc2F)nn1-c1ccccc1` [Compound 150], for which the IC50 in data set [1] and in data set [4] was over 2.5 µM in each case.
Turning to `C#Cc1cccc(C(=O)Nc2nc(NC(=O)c3cccc(N=[N+]=[N-])c3)nn2-c2ccccc2)c1` [Compound 29], in data set [2], the half-maximal effective concentration (EC50) is 2 µM. For the same molecule, the half-life at 1 μM in data set [3] stood at 0.783 h.
For `Cc1ccccc1C(=O)Nc1nc(NC(=O)c2ncccn2)n(-c2ccccc2)n1` [Compound 28], in that order: 22 µM and 0.333 h.
For `Cc1ccccc1C(=O)Nc1nc(NC(=O)c2ncco2)n(-c2ccccc2)n1` [Compound 10], in that order: 30 µM and 0.45 h.
Turning to `C#Cc1cccc(C(=O)Nc2nc(NC(=O)c3ccc(N=[N+]=[N-])cc3)nn2-c2ccccc2)c1` [Compound 12], in data set [2], the EC50 was 1 µM and 3 µM. Also, the half-life at 1 μM in data set [3] turned out to be 2.1 h.
For `Cc1ccccc1C(=O)Nc1nc(NC(=O)c2c(F)cc(F)cc2F)nn1-c1ccccc1` [Compound 149], the IC50 in data set [1] and in data set [4] was over 2.5 µM each time.
With `O=C(Nc1nc(NC(=O)c2ccncc2)n(-c2ccc(C(F)(F)F)cc2)n1)c1ccncc1` [Compound 63], the concentration giving a half-maximal response (EC50) in data set [2] was 3 µM. In data set [1], the half-inhibitory concentration (IC50) is 2.5 µM.
As to `Cc1ccccc1C(=O)Nc1nc(NC(=O)c2cccnn2)n(-c2ccccc2)n1` [Compound 13], the EC50 in data set [2] amounted to 7 µM. Also, in data set [3], the half-life at 1 μM is 0.85 h.
Turning to `Cc1ccccc1C(=O)Nc1nc(NC(=O)c2ccccc2C)n(-c2ccc(N3CCC(O)C3)cc2)n1` (stereo not drawn) [Compound 58], the concentration for a half-maximal effect (EC50) in data set [2] stood at 7 µM. The values for the IC50 in data set [5] and in data set [4] were 2.6 µM and 2.4 µM, respectively.
Consider `Cc1ccccc1C(=O)Nc1nc(NC(=O)c2cocn2)n(-c2ccccc2)n1` [Compound 9], for which the EC50 in data set [2] worked out at 32 µM. The half-life at 1 μM in data set [3] was 0.967 h.
For `COc1cccc(C(=O)Nc2nc(NC(=O)c3cccc(OC)c3)n(-c3ccccc3)n2)c1` [Compound 27], in that order: 3 µM and 0.317 h.
With `C#Cc1cccc(C(=O)Nc2nc(NC(=O)c3ccc(N=[N+]=[N-])cc3)n(-c3ccccc3)n2)c1` [Compound 18], the EC50 in data set [2] was 1 µM and 3 µM. The half-life at 1 μM in data set [3] was determined as 1.72 h.
Consider `C#Cc1ccccc1C(=O)Nc1nc(NC(=O)c2cccc(N=[N+]=[N-])c2)n(-c2ccccc2)n1` [Compound 8], for which the EC50 in data set [2] was 4 µM. Besides, the half-life at 1 μM in data set [3] is 1.18 h.
